This note sets out measurements from patent US4610989A, “Analgesic composition containing a mixture of 6-chloro-α-methyl-carbazole-2-acetic acid plus an opiate as the active agent” (priority 1985, dated 1986).

This assay has as its system phenylquinone induced writhing. The class given is in vivo, male CF-1 mice. The following applies: for ED50 (95% Conf. Limits): p.o.; for ED50 (95% Conf. Limits) / Oral ED50 (95% Confidence Limits) / Oral Ed50: given alone; for Oral ED50 (95% Confidence Limits): Table II; for % Inhibition / No. Writhing Episodes: alone. As for the experimental part: The phenylquinone was dissolved in 5% ethyl alcohol and distilled water, gently heated to 37° C. and kept in a brown stoppered bottle to prevent deterioration. The test compounds were administered orally, in rapid succession, in distilled water 15 minutes prior to the phenylquinone.
The means and standard deviations computed during this analysis were then analyzed by "parallel line bioassay" that compared the opiate alkaloid alone in graded doses against, in turn, each combination of a range of opiate alkaloid doses plus a constant dose of carbazole compound. […] The opiate alkaloid dose scale here was always logarithmic.
The sequence of treatments in this study was not random. Rather, the ED50 for opiate alkaloid alone was determined. After this, combination experiments were conducted in which the carbazole racemic 6-chloro-α-methyl-carbazole-2-acetic acid, was administered at a constant dose and the ED50 of opiate alkaloid was redetermined in the presence of racemic 6-chloro-α-methyl-carbazole-2-acetic acid.
Inhibition of phenylquinone induced writhing by oxycodone potentiated by 6-chloro-α-methyl carbazole-2-acetic acid was determined by the procedure described hereinabove with one change. […] This transformation consisted of the [(square root of the number of writhes)+(square root of the number of writhes+1)] and is commonly employed with data that are distributed in a Poisson distribution.
Inhibition of phenylquinone induced writhing by morphine potentiated by 6-chloro-α-methyl-carbazole-2-acetic acid was determined by the procedure described hereinabove with one further change. […] This analysis was carried out on the set of values representing the percent of inhibition of writhing observed at each dose, as defined above, in any given assay.
(In general: An intraperitoneal irritant provokes the stretching counted in writhing tests.)

The mark [1] stands for this setting: Table I, regression analysis and Fieller's Theorem.
Setting [2] is: Table III, square-root transformed writhes.
The mark [3] stands for this setting: Table V, Litchfield and Wilcoxon.

One may read the % Inhibition as the share of the control response that was lost under treatment.

“And” between values parts separate entries of the source, which are not always exact repeats. Equal entries are not always repeated. Where two headings read alike, the source gives them in different places.

With `CC(C(=O)O)c1ccc2c(c1)[nH]c1ccc(Cl)cc12` (racemic) [Compound A, 6-chloro-α-methyl-carbazole-2-acetic acid], the “Oral ED50 (95% Confidence Limits)” value is 48.8 (25.7-72.0). Further, under setting [1], the “ED50 (95% Conf. Limits)” value was 48.8 (25.7-72.0) mg/kg. Further, the “ED50 (95% Conf. Limits)” value under setting [2] was 41.9 (33.5-50.0) mg/kg. Moreover, for the setting “Table IV”, the “Oral Ed50” value is 41.9(33.5-50.0). Moreover, the “ED50 (95% Conf. Limits)” value under setting [3] was 54(27-108) mg/kg. Also, for the setting “Table VI”, the “Oral Ed50” value was 54(27-108). Under “oral dose 25”, the “% Inhibition” value was 17% and 18% and 29%; the “No. Writhing Episodes” value was 91 and 103 and 86. Moreover, where the note is “oral dose 50”, the “% Inhibition” value was 58% and 48% and 51%; the “No. Writhing Episodes” value is 47 and 66 and 59. In addition, the “% Inhibition” value (oral dose 100) was 87% and 73% and 74%. Moreover, the “% Inhibition” value (oral dose 200) was 96% and 90% and 91%.

Consider `CN1CC[C@]23c4c5ccc(O)c4O[C@H]2[C@@H](O)C=C[C@H]3[C@H]1C5` [Morphine, morphine], for which the “ED50 (95% Conf. Limits)” value under setting [3] is given as 2.5(1-4) mg/kg. Moreover, under “Table VI”, the “Oral Ed50” value is 2.5(1-4). Besides, the “% Inhibition” value was determined as 21% (oral dose 1.25), 47% (oral dose 2.5), 83% (oral dose 5) and 95% (oral dose 10).

As to `COc1ccc2c3c1O[C@H]1C(=O)CC[C@@]4(O)[C@@H](C2)N(C)CC[C@]314` [Oxycodone, oxycodone], the “ED50 (95% Conf. Limits)” value under setting [2] was 0.25 (0.19-0.32) mg/kg. The “Oral Ed50” value (Table IV) was 0.25(0.19-0.32). In addition, the “% Inhibition” value is given as 23% (oral dose 0.125); 43% (oral dose 0.25); 73% (oral dose 0.5); 88% (oral dose 1); 96% (oral dose 2). Besides, the “No. Writhing Episodes” value came to 87 (oral dose 0.125); 64 (oral dose 0.25); 31 (oral dose 0.5); 14 (oral dose 1); 5 (oral dose 2).

With `COc1ccc2c3c1O[C@H]1[C@@H](O)C=C[C@H]4[C@@H](C2)N(C)CC[C@@]341` [Codeine, codeine], the “Oral ED50 (95% Confidence Limits)” value is 9.2 (6.6-11.9). For the same compound, under setting [1], the “ED50 (95% Conf. Limits)” value was 9.2 (6.6-11.9) mg/kg. Under “oral dose 5”, the “% Inhibition” value stood at 19% and the “No. Writhing Episodes” value is recorded as 92. In addition, under “oral dose 10”, the “% Inhibition” value was found to be 62% and the “No. Writhing Episodes” value was found to be 43. Also, where the note is “oral dose 20”, the “% Inhibition” value is reported as 86% and the “No. Writhing Episodes” value came to 16. Where the note is “oral dose 40”, the “% Inhibition” value was 98% and the “No. Writhing Episodes” value came to 2.
